Here are results for one molecule from patent US11076600B2, “Mixtures of cis-jasmone and bacillus amyloliquefaciens” (BASF SE, priority 2015, dated 2021).

Common to all, as to type: in vivo
Assay [1] has as its system soybean cyst nematodes (Heterodera glycines). Put plainly: Field trial: yield improvement against soybean cyst nematode in soybean after seed treatment. As to conditions: soybean (Dyna-Gro 39RY43) seed treatment; per 100 kg of seed: MBI600 1*10^11 CFU, cis-jasmone 0.2 g ai; harvest yield (bushels/acre) converted into % of untreated control; 4 replicates. The text has this:
(§1) To establish, whether a synergistic effect is present, the expected efficacy has to be calculated and compared to the observed efficacy of the mixture according to the invention.
(§2) Synergism can be described as an interaction where the combined effect of two or more compounds is greater than the sum of the individual effects of each of the compounds. The presence of a synergistic effect in terms of percent control, between two mixing partners (X and Y) can be calculated using the Colby equation (Colby, S. R., 1967, Calculating Synergistic and Antagonistic Responses in Herbicide Combinations, Weeds, 15, 20-22):
(§3) X=Observed efficacy (in % of Untreated Control) of compound 1
(§4) Y=Observed efficacy (in % of Untreated Control) of compound 2
(§5) E=Calculated (i.e. expected) efficacy (in % of Untreated Control)
(§6) When the observed efficacy (%) is greater than the calculated efficacy (E) according to Colby (%), then the combined effect is synergistic.
For evaluating control of soybean cyst nematodes (Heterodera glycines) in soybean, soybean seeds (variety Dyna-Gro 39RY43) were treated with cis-jasmone, MB1600 (Bacillus amyloliquefaciens ssp. plantarum MB1600), or a mixture thereof.
(§7) Seeds were placed in a plastic cup and the compounds, or the mixture thereof, was dosed on the seeds with an application rate of 0.2 g of cis-jasmone per 100 kg of seeds, and 1*10^11 CFU of MBI600 per 100 kg of seeds. […]

Assay [2] has as its system root knot nematodes (Meloidogyne incognita/acrita). Kind of assay: Field trial: yield improvement against root knot nematode in cotton after seed treatment. To be noted: cotton (PhytoGen PHY 499 WRF) seed treatment; per 100 kg of seed: MBI600 1*10^11 CFU, cis-jasmone 0.2 g ai; harvest yield (pounds/acre) converted into % of untreated control; 4 replicates.
Source text: as §1, §2, §3, §4, §5, §6
For evaluating control of root knot nematodes (Meloidogyne incognita/acrita) in cotton, cotton seeds (variety PhytoGen PHY 499 WRF) were treated with cis-jasmone, MBI600 (Bacillus amyloliquefaciens ssp. plantarum MBI600), or a mixture thereof.
as §7

For assay [3] the test system is unchanged. Put plainly: Field trial: yield improvement against root knot nematode in corn after seed treatment. To be noted: corn (NG6247MQKZ, NF5334MQKZ, NG4549MQKZ) seed treatment; per 100 kg of seeds: MBI600 1*10^11 CFU, cis-jasmone 0.2 g ai; harvest yield (bushels/acre) converted into % of untreated control; 4-6 replicates.
Source text: as §1, §2, §3, §4, §5, §6
For evaluating control of root knot nematodes (Meloidogyne incognita/acrita) in corn, corn seeds (varieties NG6247MQKZ, NF5334MQKZ and NG4549MQKZ, respectively) were treated with cis-jasmone, MBI600 (Bacillus amyloliquefaciens ssp. plantarum MBI600), or a mixture thereof. […]

`CC/C=C\CC1=C(C)CCC1=O` [Cis-jasmone]: the results for the “Observed efficacy (%)” value in assay [1], in assay [2] and in assay [3] were 9%, 47.2% and 9.2%, respectively.
